Laboratory results reported in patent US20090311237A1, “Combination therapy using a soluble hyaluronidase and a bisphosphonate” (priority 2008, published 2009).
Where “and” joins values, the source holds several entries; their conditions need not be identical. Equal values may be shown once.

Assay: Phase 1 Stage 1 clinical pharmacokinetics of SC ZA co-administered with rHuPH20
Type: in vivo, human
Settings: for MAT (mean absorption time = SC MRT − IV MRT) / MAT, Mean for the dose group / MAT, Median for the dose group: 100 mL, 24000 Units rHuPH20
Experimental: A pharmacokinetic study of zoledronic acid (ZA) co-administered with rHuPH20 in human subjects was conducted. The primary objective of the study was to determine the bioavailability of zoledronic acid dosed via subcutaneous (SC) co-administration with human recombinant hyaluronidase PH20 (rHuPH20). […] The patients were administered the prescribed dosage formulations as follows: Cohorts 1-5 were administered a single subcutaneous infusion in a dosage volume of 100 ml at a rate of 3 mL/min. […] The dosing solution is administered via needle or catheter into the SC space of the left anterior thigh (midway between the anterior iliac crest and the cephalad border of the patella). For cohorts 1-5, the dosing solutions were administered by a controlled rate infusion pump at approximately 3 mL/minute. […] The dosing solutions were administered by syringe push bolus injection. […] Serum concentration of ZA was determined using a qualified LC-MS-MS assay after derivatization with diazomethane (Zhu, L S et al. (2006) Rapid Commun. […] The assay range was from 2.0 to 400 ng/mL with a lower limit of quantitation (LLOQ) at 2.0 ng/mL. […] Non-compartmental analysis was used for derivation of primary and secondary pharmacokinetic (PK) parameters. […] Summary statistics (mean, standard deviation, and median) were calculated using JMP or Microsoft Excel.

[1] = Subj 51, ZA […] SC, inf 0.251 hr, PH20 6024 U
[2] = Subj 63, ZA 0.0820 mg/kg SC, inf […], PH20 6000 U
[3] = Subj 67, ZA 0.0717 mg/kg SC, inf […], PH20 2880 U
[4] = Subj 68, ZA 0.0608 mg/kg SC, inf […], PH20 2880 U
[5] = Subj 70, ZA 0.0776 mg/kg SC, inf […], PH20 2928 U
[6] = Subj 71, ZA 0.0781 mg/kg SC, inf […], PH20 6000 U
[7] = Subj 74, ZA 0.0794 mg/kg SC, inf […], PH20 6000 U
[8] = Subj 77, ZA […] SC, inf […], PH20 6000 U
[9] = ZA 0.25 mg SC + 24000 U rHuPH20, individual subjects
[10] = ZA 0.25 mg SC + 24000 U rHuPH20, mean, n=3
[11] = ZA 0.25 mg SC + 24000 U rHuPH20, median, n=3
[12] = ZA 0.5 mg SC + 24000 U rHuPH20, individual subjects
[13] = ZA 0.5 mg SC + 24000 U rHuPH20, mean, n=3
[14] = ZA 0.5 mg SC + 24000 U rHuPH20, median, n=3
[15] = ZA 1 mg SC + 24000 U rHuPH20, individual subjects
[16] = ZA 1 mg SC + 24000 U rHuPH20, mean, n=3
[17] = ZA 1 mg SC + 24000 U rHuPH20, median, n=3
[18] = ZA 2 mg SC + 24000 U rHuPH20, individual subjects

## O=P(O)(O)C(O)(Cn1ccnc1)P(=O)(O)O [ZA, 1-hydroxy-2-(1H-imidazol-1-yl)ethylidene-1,1-bisphosphonic acid]
[1]
  Vss: 1.27627 L/kg
  Vz: 3.04413 L/kg
[2]
  AUC (0-inf)/D: 0.008077 kg·h/mL
  CL: 2.0635 mL/min/kg
  Cmax/D: 0.002037 kg/mL
  Vss: 1.473 L/kg
  Vz: 3.66662 L/kg
[3]
  AUC (0-inf)/D: 0.01012 kg·h/mL
  CL: 1.648 mL/min/kg
  Cmax/D: 0.002176 kg/mL
  Vss: 1.03944 L/kg
  Vz: 2.6134 L/kg
[4]
  AUC (0-inf)/D: 0.01035 kg·h/mL
  CL: 1.61 mL/min/kg
  Cmax/D: 0.002368 kg/mL
  Vss: 1.59221 L/kg
  Vz: 3.88814 L/kg
[5]
  AUC (0-inf)/D: 0.008898 kg·h/mL
  CL: 1.873 mL/min/kg
  Cmax/D: 0.002771 kg/mL
  Vss: 0.98673 L/kg
  Vz: 3.15269 L/kg
[6]
  AUC (0-inf)/D: 0.008873 kg·h/mL
  CL: 1.8783 mL/min/kg
  Cmax/D: 0.002535 kg/mL
  Vss: 0.87424 L/kg
  Vz: 3.12259 L/kg
[7]
  AUC (0-inf)/D: 0.006994 kg·h/mL
  CL: 2.3828 mL/min/kg
  Cmax/D: 0.001511 kg/mL
  Vss: 1.84253 L/kg
  Vz: 4.88924 L/kg
[8]
  AUC (0-inf)/D: 0.008412 kg·h/mL
  CL: 1.9812 mL/min/kg
  Cmax/D: 0.001824 kg/mL
  Vss: 1.60873 L/kg
  Vz: 4.21769 L/kg
[9]
  AUC (0-12h): 29.30 ng·h/mL
  AUC (0-∞): 30.00 ng·h/mL and 31.77 ng·h/mL
  AUC (0-∞)/D: 0.00926 kg·h/mL and 0.00674 kg·h/mL and 0.00971 kg·h/mL
  Cmax/D: 0.00205 kg/mL and 0.00174 kg/mL and 0.00173 kg/mL
  MRT: 4.21 h
  T½elim: 1.88 h and 2.44 h and 2.10 h
[10]
  AUC (0-∞)/D: 0.00857 kg·h/mL
  Cmax/D: 0.00184 kg/mL
  T½elim: 2.14 h
[11]
  AUC (0-∞)/D: 0.00926 kg·h/mL
  Cmax/D: 0.00174 kg/mL
  T½elim: 2.10 h
ZA 0.25 mg SC, individual subjects
  MAT (mean absorption time = SC MRT − IV MRT): 1.47 h and 1.03 h and 2.31 h
ZA 0.25 mg SC, n=3
  MAT, Mean for the dose group: 1.60 h
  MAT, Median for the dose group: 1.47 h
[12]
  AUC (0-12h): 66.33 ng·h/mL
  AUC (0-∞): 68.26 ng·h/mL
  AUC (0-∞)/D: 0.00709 kg·h/mL and 0.00766 kg·h/mL and 0.00968 kg·h/mL
  Cmax/D: 0.00174 kg/mL and 0.00192 kg/mL and 0.00214 kg/mL
  MRT: 3.35 h
  T½elim: 2.24 h and 2.27 h (2×)
[13]
  AUC (0-∞)/D: 0.00814 kg·h/mL
  Cmax/D: 0.00193 kg/mL
  T½elim: 2.26 h
[14]
  AUC (0-∞)/D: 0.00766 kg·h/mL
  Cmax/D: 0.00192 kg/mL
  T½elim: 2.27 h
ZA 0.5 mg SC, individual subjects
  MAT (mean absorption time = SC MRT − IV MRT): 1.00 h and 1.11 h
ZA 0.5 mg SC, n=3
  MAT, Mean for the dose group: 1.03 h
  MAT, Median for the dose group: 1.00 h
[15]
  AUC (0-12h): 137.25 ng·h/mL
  AUC (0-∞): 158.68 ng·h/mL
  AUC (0-∞)/D: 0.00701 kg·h/mL and 0.01176 kg·h/mL and 0.00624 kg·h/mL
  Cmax/D: 0.00174 kg/mL and 0.00247 kg/mL and 0.00128 kg/mL
  MRT: 6.25 h
  Tmax: 0.73 h
  T½elim: 12.87 h and 13.95 h and 8.85 h
[16]
  AUC (0-∞)/D: 0.00834 kg·h/mL
  Cmax/D: 0.00183 kg/mL
  T½elim: 11.89 h
[17]
  AUC (0-∞)/D: 0.00701 kg·h/mL
  Cmax/D: 0.00174 kg/mL
  T½elim: 12.87 h
ZA 1 mg SC, individual subjects
  MAT (mean absorption time = SC MRT − IV MRT): 1.41 h and 1.00 h
ZA 1 mg SC, n=3
  MAT, Mean for the dose group: 1.36 h
  MAT, Median for the dose group: 1.41 h
[18]
  AUC (0-12h): 213.87 ng·h/mL and 236.51 ng·h/mL
  AUC (0-∞): 245.47 ng·h/mL and 293.51 ng·h/mL
  AUC (0-∞)/D: 0.00739 kg·h/mL and 0.00809 kg·h/mL and 0.00825 kg·h/mL
  Cmax/D: 0.00188 kg/mL and 0.00175 kg/mL and 0.00165 kg/mL
  MRT: 10.59 h
